Assay results published in patent publication US20230391796A1, “GLYCOSIDASE INHIBITORS AND USES THEREOF” (UNIVERSIDAD DE SEVILLA (US) -UNIVERSITY OF SEVILLE (US), priority 2020, published 2023).
Counter-ions that a name gives are not always drawn.

Legend:
Format in all cases: biochemical
hOGA = biological target: T1, hOGA (Homo sapiens, UniProt O60502); assay: Inhibition assay against hOGA, resorufin N-acetyl-β-D-glucosaminide fluorescence; conditions: 0.2 nM hOGA, 25 μM substrate, pH 7.1; Morrison Ki
T1 sequence (O60502 1-916): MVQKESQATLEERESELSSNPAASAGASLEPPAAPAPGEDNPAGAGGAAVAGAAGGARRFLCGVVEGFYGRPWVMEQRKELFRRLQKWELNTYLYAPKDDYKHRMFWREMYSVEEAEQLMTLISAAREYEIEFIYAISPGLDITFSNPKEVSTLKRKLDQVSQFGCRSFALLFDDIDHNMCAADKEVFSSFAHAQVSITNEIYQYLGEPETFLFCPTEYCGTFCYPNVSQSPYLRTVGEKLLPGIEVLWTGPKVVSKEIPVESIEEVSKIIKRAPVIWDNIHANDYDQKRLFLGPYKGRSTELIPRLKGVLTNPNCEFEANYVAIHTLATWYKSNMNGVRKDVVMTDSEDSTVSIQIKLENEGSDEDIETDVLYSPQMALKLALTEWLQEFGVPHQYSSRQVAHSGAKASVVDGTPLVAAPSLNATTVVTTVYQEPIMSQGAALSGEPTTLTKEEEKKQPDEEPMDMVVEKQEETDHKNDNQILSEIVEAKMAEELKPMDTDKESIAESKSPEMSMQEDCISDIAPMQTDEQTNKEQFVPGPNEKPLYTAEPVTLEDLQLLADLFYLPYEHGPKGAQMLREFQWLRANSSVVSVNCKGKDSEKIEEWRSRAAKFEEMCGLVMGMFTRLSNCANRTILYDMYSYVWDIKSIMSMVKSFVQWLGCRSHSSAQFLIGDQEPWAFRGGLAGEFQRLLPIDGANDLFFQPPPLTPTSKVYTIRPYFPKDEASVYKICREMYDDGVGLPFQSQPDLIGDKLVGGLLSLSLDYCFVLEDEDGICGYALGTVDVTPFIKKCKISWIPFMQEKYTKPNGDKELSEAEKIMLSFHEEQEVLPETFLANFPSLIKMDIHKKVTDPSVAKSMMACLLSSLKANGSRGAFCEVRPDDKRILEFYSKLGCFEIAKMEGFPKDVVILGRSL
Description: Inhibition Assays Against hOGA
Km=25 μM was measured with these conditions. Inhibition assays were run at 0.2 nM [hOGA] in the same buffer, in the presence or absence of various concentrations of inhibitors and at a fixed substrate concentration of 25 μM and 1% DMSO. First, inhibitor was serially diluted to the desired range of concentrations in 2% DMSO buffer. Next, 50 μL of inhibitor solutions at various concentrations in 2% DMSO Buffer was added to 50 μL of 0.8 nM enzyme and allowed to incubate at 25° C. for 5 minutes. 100 uL of 50 μM and 1% DMSO substrate was then added and reaction mixture was immediately mixed and aliquoted in 45 μL triplicates to a CORNING 384 well black plate. Fluorescence signal was measured continuously for 20 minutes at 37° C. in a BioTek Neo 2 Plate reader set at excitation and emission wavelengths of 572 and 610 nm, respectively. Max reaction rates for all inhibitor concentrations were calculated within Gen5 BioTek reader software. % Activity was subsequently calculated for each inhibitor concentration against the max reaction rate of uninhibited hOGA. GraphPad Prism 2016 was used to approximate the Morrison Ki values for each inhibitor.

[1] = biological target: β-N-acetylglucosaminidase (from bovine kidney); assay: Inhibition assay against commercial β-N-acetylglucosaminidase (bovine kidney), p-nitrophenyl N-acetyl-β-D-glucosaminide substrate; conditions: pH 5.5, 37° C.; average of three determinations ± s.e.m.; NI = no inhibition detected at 200 μM; read-out: Bovine kidney Hex
Description: Inhibition Assays Against Commercial β-N-acetylglucosaminidases
Inhibition constant (Ki) values were determined by spectrophotometrically measuring the residual hydrolytic activities of the glycosidases against p-nitrophenyl N-acetyl-β-D-glucosaminide. […] Each assay was performed in phosphate-citrate buffer and the reactions were initiated by addition of the enzyme to a solution of the substrate in the absence or presence of various inhibitor concentrations. The mixture was incubated for 10-30 min at 37° C. and the reaction was quenched by addition of 1 M Na2CO3. Reaction times were appropriate to obtain 10-20% conversion of the substrate in order to achieve linear rates. The absorbance of the resulting mixture was determined at 405 nm. Approximate values of Ki were determined using a fixed concentration of substrate (around the Km value for the different glycosidases) and various inhibitor concentrations. Full Ki determinations and enzyme inhibition mode were determined from the slope of Lineweaver-Burk plots and double reciprocal analysis using a Microsoft Office Excel 2007 program.

[2] = biological target: T2, Recombinant Human Hexosaminidase B (HexB) (Homo sapiens, UniProt P07686); assay: Inhibition assay against rhHexB, 4-methylumbelliferone N-acetyl-β-D-galactosaminide fluorescence; conditions: 5 nM HexB, 150 μM substrate, pH 5.5; NI = no inhibition detected at 200 μM; read-out: hHexB
T2 construct: purchased R&D Systems 8907-GH-020
T2 sequence (P07686 122-556): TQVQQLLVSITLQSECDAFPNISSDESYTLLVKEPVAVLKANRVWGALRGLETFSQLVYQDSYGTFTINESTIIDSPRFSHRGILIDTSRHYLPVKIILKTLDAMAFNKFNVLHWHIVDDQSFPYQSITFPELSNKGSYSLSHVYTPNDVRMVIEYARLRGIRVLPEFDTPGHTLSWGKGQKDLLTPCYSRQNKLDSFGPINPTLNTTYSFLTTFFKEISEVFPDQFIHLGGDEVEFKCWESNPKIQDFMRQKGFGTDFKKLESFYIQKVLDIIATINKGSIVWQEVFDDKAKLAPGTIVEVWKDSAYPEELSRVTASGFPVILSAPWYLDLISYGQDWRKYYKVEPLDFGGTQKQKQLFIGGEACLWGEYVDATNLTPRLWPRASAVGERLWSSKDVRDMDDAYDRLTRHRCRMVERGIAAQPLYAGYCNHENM
Description: Inhibition Assays Against rhHexB
Inhibition constant (Ki) values for compounds against Recombinant Human Hexosaminidase B (HexB) enzyme, purchased from R&D Systems (cat# 8907-GH-020) are determined by measuring the change in fluorescent signal corresponding to the rate of hydrolytic activity against the commercially available artificial substrate, 4-Methylumbelliferone N-acetyl-β-D-galactosaminide. HexB activity assays were performed in a buffer 100 mM MES at pH 5.5 and 5 nM [HexB]. Inhibition assays were in the presence or absence of various concentrations of inhibitors and at a fixed substrate concentration of 150 μM and 1% DMSO. First, inhibitor was serially diluted to the desired range of concentrations in 2% DMSO buffer. Next, 50 μL, of inhibitor solutions at various concentrations in 2% DMSO Buffer was added to 50 μL of 20 nM enzyme and allowed to incubate at 25° C. for 5 minutes. 100 μL, of 300 μM and 1% DMSO substrate was then added and reaction mixture was immediately mixed and aliquoted in 45 μL triplicates to a CORNING 384 well black plate. Fluorescence signal was measured continuously for 20 minutes at 25° C. in a BioTek Neo 2 Plate reader set at excitation and emission wavelengths of 355 and 450 nm, respectively. Max reaction rates for all inhibitor concentrations were calculated within Gen5 BioTek reader software. % Activity was subsequently calculated for each inhibitor concentration against the max reaction rate of uninhibited HexB. GraphPad Prism 2016 was used to approximate the Morrison Ki values for each inhibitor.

Ki (hOGA) [nM] | Ki [1] [µM] | Ki [2] [µM] | SMILES
762 | > 200 | > 200 | CCCNC(=S)N[C@H]1CN2/C(=N/Cc3ccccc3)SC[C@@H]2[C@@H](O)[C@@H]1O [Compound 19, 2-Propylthioureido-5-N,6-S-(N′-benzyliminomethylidene)-1,2-dideoxy-6-thionojirimycin]
0.701 | > 200 | > 200 | CCC(=O)N[C@H]1CN2/C(=N/Cc3cccc4ccccc34)SC[C@@H]2[C@@H](O)[C@@H]1O [Compound 14, 2-Propionamido-5-N,6-S-(N′-1-naphthylmethyliminomethylidene)-1,2-dideoxy-6-thionojirimycin hydrochloride]
7.97 | > 200 | > 200 | CCC(=O)N[C@H]1CN2/C(=N/Cc3ccccc3)SC[C@@H]2[C@@H](O)[C@@H]1O [Compound 13, 2-Propanamido-5-N,6-S-(N′-benzyliminomethylidene)-1,2-dideoxy-6-thionojirimycin Hydrochloride]
1060 | > 200 | > 200 | CCNC(=S)N[C@H]1CN2/C(=N/Cc3ccccc3)SC[C@@H]2[C@@H](O)[C@@H]1O [Compound 18, 2-Ethylthioureido-5-N,6-S-(N′-benzyliminomethylidene)-1,2-dideoxy-6-thionojirimycin]
337 | > 200 | > 200 | CCCC(=O)N[C@H]1CN2/C(=N/Cc3ccccc3)SC[C@@H]2[C@@H](O)[C@@H]1O [Compound 17, 2-Butanamido-5-N,6-S-(N′-benzyliminomethylidene)-1,2-dideoxy-6-thionojirimycin]
0.657 | > 200 | > 200 | CCC(=O)N[C@H]1CN2/C(=N/Cc3ccc4[nH]ccc4c3)SC[C@@H]2[C@@H](O)[C@@H]1O [Compound 15, 2-Propionamido-5-N,6-S-(N′-5-indolylmethyliminomethylidene)-1,2-dideoxy-6-thionojirimycin hydrochloride]
888 | > 200 | > 200 | CC(C)C(=O)N[C@H]1CN2/C(=N/Cc3ccccc3)SC[C@@H]2[C@@H](O)[C@@H]1O [Compound 16, 2-Isobutanamido-5-N,6-S-(N′-benzyliminomethylidene)-1,2-dideoxy-6-thionojirimycin Hydrochloride]
